Test system: myelinating oligodendrocytes in the CNS
Assay: Ectopic CNS expression of IFN-γ during development (released from doxycycline at E14), wild-type or PERK+/− background
Type: in vivo, mice
From the text: To study the effect of INF-γ on the myelination of oligodendrocytes during mouse development, transgenic mice that allow for temporally regulated delivery of IFN-γ to the CNS using the tetracycline (tet) controllable system (Lin, et al. (2004) J. Neurosci. 24: 10074-10083) were generated. To drive tTA expression in astrocytes, the transcriptional regulatory region of the glial fibrillary acidic protein (GFAP) gene was chosen (Brenner, et al. (1994) J. Neurosci. 14: 1030-1037). GFAP/tTA mice were mated with TRE/IFN-γ mice to produce animals hemizygous for both transgenes. When these mice are maintained on doxycycline (DOX+), expression of the IFN-γ transgene is repressed (FIG. 10A); when the double transgenic mice are released from doxycycline (DOX−) INF-γ is expressed. For the purpose of these experiments, mice received doxycycline up to day 14 of development (E14), at which time the experimental animals (DOX−) stopped receiving doxycycline, while the control animals (DOX+) were continuously fed the dug. The mRNA for IFN-γ could be detected in the DOX− mice as early as 10 days after birth (data not shown).
Real time PCR analysis was performed to determine the levels of expression of INF-γ, MHC-1, BIP, CHOP, and caspase 12. The primers for the PCR reactions for BIP, CHP and caspase 12 are given in example 1. The sense and antisense primers for INF-γ were […] (SEQ ID NO: 39) and […] (SEQ ID NO: 40), respectively; and the sense and antisense primers for MHC-1 were MHC-I sense primer: ATTCCCCAAAGGCCCATGT (SEQ ID NO: 1); and MHC-I antisense primer: […] (SEQ ID NO: 2).
Western blot analysis was performed on the CNS of 14 day old mice to determine the expression of caspase-12 as described in Example 6.
Brain and spinal cord tissue were analyzed using immunohistochemical methods as follows. Anesthetized mice were perfused through the left cardiac ventricle with 4% paraformaldehyde in 0.1M PBS. The half-saggital brains and transcervical spinal cord were removed, postfixed with paraformaldehyde, cryopreserved in 30% sucrose, embedded in OCT and frozen on dry ice. Frozen sections were cut in a cryostat at a thickness of 10 μm. Coronal sections at the fornix region of the corpus callosum corresponding to Sidman sections 241-251 were selected for use, and all comparative analyses were restricted to midline corpus callosum (Sidman, et al. (1971) Atlas of the Mouse Brain and Spinal Cord (Harvard Univ. Press, Cambridge, Mass.). For immunohistochemistry, frozen sections were treated with −20° C. acetone, blocked with PBS containing 10% NGS and 0.1% Triton X-100 and incubated overnight with the primary antibody diluted in blocking solution. Appropriate fluorochrome- or enzyme-labeled secondary antibodies (Vector Laboratories, Burlingame, Calif.) were used for detection. An antibody against CC1 (APC7, 1:50; EMD Biosciences, Inc., La Jolla, Calif.) was used as a marker for mature oligodendrocytes. Antibody against MBP (1:1000; Sternberger Monoclonals, Lutherville, Mass.) was used to verify the degree of myelination. Antibody against active-caspase-3 (1:50, Cell signaling Technology, Beverly, Mass.) was used as a marker for apoptotic cells. Fluorescent stained sections were mounted with Vectashield mounting medium with DAPI (Vector Laboratories) and visualized with a Zeiss Axioplan fluorescence microscope. Images were captured using a Photometrics PXL CCD camera connected to an Apple Macintosh computer using the Open Lab software suite. Immunopositive cells were quantified by counting positive cells within the median of the corpus callosum, confined to an area of 0.04 mm^2. Only those cells with nuclei observable by DAPI staining were counted. Each MBP immunostaining slide was scored on a scale of zero to four. A score of zero indicates complete demyelination, and a score of four indicates normal myelination in the corpus callosum of adult mice. […]

[1] = PERK+/− background, released from doxycycline at E14
[2] = wild-type background, released from doxycycline at E14

IFN-γ: pleotropic cytokine secreted by activated T lymphocytes and natural killer cells; delivered to the CNS by transgene or added as recombinant protein
BIP expression relative to control levels (CNS, PND 14, DOX− from E14): approximately 1.6 times | CHOP expression relative to control levels (CNS, PND 14, DOX− from E14): ~2 times | caspase-12 expression (CNS, PND 14, DOX− from E14): strongly enhanced | state of myelination (DOX− double transgenic mice, wild-type background): mildly hypomyelinated | decrease of oligodendrocyte numbers in the spinal cord (CC1) (PERK+/− background, 14-day-old): more than 50% | mice that died by post natal day (PND) 27 [1]: more than 90% | mice that experienced tonic seizures [1]: approximately two-thirds | unmyelinated axons in the spinal cord (PERK+/− mice expressing IFN-γ, 14-day-old): 81%±14.9% | TUNEL positive oligodendrocytes in the cervical spinal cord, PERK+/− relative to wild-type background (released from doxycycline at E 14): 2.5 times | survival [2]: normal survival | unmyelinated axons in the spinal cord [2]: 30%±12.9%

Source: patent publication US8053627B2, “Methods for treating demyelination disorders” (University of Chicago, priority 2005, dated 2011)
